Earlier results on one compound are cited in patent US20020012702A1, “Controlled release anti-inflammatory oral formulation and a process for the preparation thereof” (Ajanta Pharma, Ltd., priority 2000, published 2002).

With `CS(=O)(=O)Nc1ccc([N+](=O)[O-])cc1Oc1ccccc1` [Nimesulide, 4-Nitro-2-phenoxymethane sulfonanilide], where the note is “administered in the presence of food, higher than under fasting conditions”, the “nimesulide plasma concentrations in the presence of food versus fasting conditions” value is 2 to 4 fold. The half life (in vivo) is 3 to 4 h.
